Entries after “also recorded” stand apart in the source; their conditions may differ.
Legend:
[1] = tested on: juvenile HET+/- (Syngap1+/-) mice; test: 24 h vEEG quantitative EEG (gamma slope, delta power), with or without 6 h sleep deprivation; type: in vivo; settings: for delta power during NREM: one-way ANOVA
Protocol: (§1) 24 h tethered vEEG recording was performed for Het+/− mice and their age- and sex matched WT littermates at P21-P30, followed by telemetric vEEG for 24 h with 6 h SD at P35. Quantitative EEG (qEEG) analysis included the frequency bands: delta (0.5-4.0 Hz), theta(5.5-8.0 Hz), alpha (8.0-13.0 Hz), beta (13.0-30 Hz), and gamma (35-50 Hz). Linear regression of gamma frequency power during transition states from wake to sleep was quantified. Spike frequency over 24 h EEG was scored by a blind reviewer based on previously published parameters. The effect of low-dose PMP (2 mg/kg, IP, BD), an AMPA receptor antagonist, on these potential qEEG biomarkers was investigated. Additionally, movement analysis was performed using infrared cameras to trace fast-active movements between 5 am-7 am. 24 h telemetric vEEG was recorded during marble burying and novel object behavioral tests.

[2] = tested on: patient with pathogenic SYNGAP1 variant; test: VB-MAPP assessment for verbal and social skills (case study); type: in vivo, human; set-up: key to VB-MAPP Communication: Manding / VB-MAPP Communication: Pointing/gesturing to preferred items / VB-MAPP Communication: Listener Responding-reinforcing/preferred items / VB-MAPP Communication: PECS-Phase 1 / VB-MAPP Cognitive: Motor imitation / VB-MAPP Cognitive: Receptive commands / VB-MAPP Social: Responds to name / VB-MAPP Social: Parallel play / VB-MAPP Social: Independent play / VB-MAPP Health: Feeding / VB-MAPP Behavior: Functional Communication training / VB-MAPP Behavior: Waiting: ↑ = improvement in skill from prior assessment; ↓ = worsening in skill from prior assessment
Protocol: (§2) A […] […] daughter with pathogenic SYNGAP1 variant was trialed on low doses of PMP.
(§3) Clinical data from physician's clinic notes; genetic testing reports; developmental scores from occupational therapy, physical therapy, speech and language therapy evaluations; and applied behavioral analysis (ABA) reports were reviewed.
(§4) Low-dose PMP at 0.2 mg every night was started when they were 25 months of age. […] The Verbal Behavior Milestones Assessment and Placement Program (VB-MAPP) which is an assessment and skills-tracking system to assess the language, learning and social skills of children with autism or other developmental disabilities was used to evaluate their language and other related social skills. […] Patients' baseline VB-MAPP score […] (prior to starting PMP) was 7/45, which improved to 10/45 at 3 months post PMP and then to 17.5/45 at 10 and 13 months post PMP with 37.2% of developmental goals mastered. A follow-up overnight EEG was done […]. […] Multifocal epileptiform discharges, which were rarely observed in their prior EEGs, were noted over the temporal and central head regions bilaterally and occurred independently. At times the centro-temporal discharges occurred synchronously. These discharges were most prevalent in the N2 sleep, which increased in prevalence in subsequent N2 sleep cycles (FIG. 3). Finally, similar to dysregulated gamma seen during behavioral transition points from wake to NREM sleep in Syngap1^+/− mice, we also observed gamma dysregulation in our patient's pre-PMP EEG, where gamma power was increased during NREM when transitioning from REM and, therefore, presenting a positive slope (FIG. 4).

[3] = tested on: Syngap1+/- mice; settings: cited from earlier work
[4] = tested on: juvenile HET+/- (Syngap1+/-) mice; test: Spike frequency over 24 h EEG; type: in vivo; settings: low-dose PMP
Protocol: as §1

[5] = tested on: patient with pathogenic SYNGAP1 variant; test: EEG, hypnogram and quantitative EEG analysis pre- and post-PMP (case study); type: in vivo, human
Protocol: EEGs used for analysis were recorded with a 10-20 electrode placement system. EEGs were reviewed in Persyst (version 14, Persyst Development Corporation, Prescott, AZ). Long-duration continuous EEGs (≥16 h) that included awake and sleep states were reviewed in non-overlapping 10-second epochs. Each epoch was analyzed for the presence or absence of abnormalities and were given a binary score (1=present, 0=absent). The findings that were scored were abnormal slowing (generalized or focal, FIGS. 3A, B) and epileptiform discharges (generalized or focal, FIGS. 3C,D).
In order to characterize and quantify the clustered nature of spikes, hierarchical clustering analysis was implemented. Hierarchical clustering analysis groups data points based on Euclidean distance and the size of clusters were determined by the clustering coefficient. Average number of spike events in a cluster was computed for a sequence of increasing clustering coefficients, and the progressions for spike subtypes were compared. The rate at which the average spike events increased with respect to clustering coefficient and the size characterized the clustered nature of spike events.
Sleep stages were manually scored in 10 second epochs. FFT was applied to 10 second epochs in Sirenia Sleep software (Pinnacle Tech. Inc, Kansas USA) for further EEG analysis. […] To analyze the presence of similar gamma dysregulation in REM and NREM transition points, linear regression analysis was done on 10 min segment of the REM to NREM transition point

[6] = tested on: juvenile HET+/- (Syngap1+/-) mice; test: Movement analysis of fast-active events with infrared cameras; type: in vivo; settings: 5-7 am, dark cycle; HET+/- with low-dose PMP vs WT+/+
Protocol: as §1

[7] = tested on: patient with pathogenic SYNGAP1 variant; test: Case study of low-dose PMP: tolerability, therapy evaluations, sleep, clinical seizures; type: in vivo, human
Protocol: as §2
The child has now been on low-dose PMP (<2 mg daily) for over one year. We here discuss the safety profile, changes in the electroencephalographic (EEG) features and clinical features, especially in the developmental profile and sleep pre-and-post PMP. We hypothesize that PMP at doses lower than typically used as an antiseizure medication will be safe in patients with SYNGAP1-DEE and help normalize sleep and behavioral disorders. Almost 50% of SYNGAP1-DEE related epilepsies are refractory to treatment from the very onset and currently very few children are prescribed PMP even for seizure control such that only 1 of 57 patients in a cohort study was documented to have been on it(3).
as §3, §4

[8] = tested on: PV+ interneurons; test: AMPA insertion and hyperexcitable phenotype in SynGAP1 mice; type: in vivo; settings: low dose
[9] = 3 months post PMP (dose 0.2 mg)
[10] = 10 months post PMP (dose 0.3 mg)
[11] = 6 months post-initiation, once daily low-dose PMP at bedtime

N#Cc1ccccc1-c1cc(-c2ccccn2)cn(-c2ccccc2)c1=O [PMP, 3-(2-cyanophenyl)-5-(2-pyridyl)-1-phenyl-1,2-dihydropyridin-2-one]
delta power during NREM ([1]; 24 h baseline vEEG, all groups incl. HET+/- PMP): did not show notable statistical significance across all groups | delta power during NREM ([1]; 24 h vEEG with 6 h SD, all groups): did not show notable statistical significance across all groups | gamma slope at behavioral transition points, wake to sleep ([1]; low-dose PMP 2 mg/kg, IP, BD, juvenile HET+/-, paired t-test p<0.05): significantly reduced the gamma slope and rescued the gamma homeostasis | gamma slope at sleep transition points after 6 h SD ([1]; low-dose PMP 2 mg/kg, IP, sleep deprived HET+/-, paired t-test p<0.05): rescued gamma homeostasis by decreasing the most dominant slope | VB-MAPP Behavior: Functional Communication training [2, 9]: ↑ | VB-MAPP Behavior: Waiting [2, 9]: ↑ | VB-MAPP Cognitive: Motor imitation [2, 9]: ↑ | VB-MAPP Cognitive: Receptive commands [2, 9]: ↑ | VB-MAPP Communication: Listener Responding-reinforcing/preferred items [2, 9]: ↑ | VB-MAPP Communication: Manding [2, 9]: ↑ | VB-MAPP Communication: PECS-Phase 1 [2, 9]: ↑ | VB-MAPP Communication: Pointing/gesturing to preferred items [2, 9]: ↑ | VB-MAPP Health: Feeding [2, 9]: ↑ | VB-MAPP Social: Independent play [2, 9]: ↑ | VB-MAPP Social: Parallel play [2, 9]: ↑ | VB-MAPP Social: Responds to name [2, 9]: ↑ | VB-MAPP score ([2]; 3 months post PMP, baseline prior to PMP 7/45): 10/45 | developmental goals mastered ([2]; 10 and 13 months post PMP): 37.2% | VB-MAPP Behavior: Functional Communication training [2, 10]: ↑ | VB-MAPP Behavior: Waiting [2, 10]: ↑ | VB-MAPP Cognitive: Motor imitation [2, 10]: ↑ | VB-MAPP Cognitive: Receptive commands [2, 10]: ↑ | VB-MAPP Communication: Listener Responding-reinforcing/preferred items [2, 10]: ↓ | VB-MAPP Communication: Manding [2, 10]: ↓ | VB-MAPP Communication: PECS-Phase 1 [2, 10]: ↑ | VB-MAPP Communication: Pointing/gesturing to preferred items [2, 10]: ↑ | VB-MAPP Health: Feeding [2, 10]: ↑ | VB-MAPP Social: Independent play [2, 10]: ↑ | VB-MAPP Social: Parallel play [2, 10]: ↑ | VB-MAPP Social: Responds to name [2, 10]: ↑ | gamma dysregulation ([3]; PMP-treated Syngap1+/- mice): significant rescue of the gamma dysregulation | interictal spikes suppression ([3]; epileptic mice, low dose): weaker effect on interictal spikes suppression | cortical spike frequency [4]: reduced spike frequency in high spiking HET^+/− mice however group data was not statistically significant | prevalence of occipital intermittent rhythmic delta activity (OIRDA) ([5]; follow-up overnight EEG, post-PMP vs pre-PMP, wake and REM sleep): overall decrease in the prevalence of the OIRDA; also recorded: significantly reduced post-PMP | effect on epileptiform discharges ([5]; low-dose PMP): did not have any significant effect on the epileptiform discharges | prevalence of focal epileptiform discharges ([5]; post PMP vs pre PMP EEG): more prevalent post PMP compared to pre PMP | gamma dysregulation: gamma slope at REM to NREM transitions ([5]; post-PMP EEG vs pre-PMP EEG, same patient): significantly alleviated; also recorded: significantly rescued | level of fast active events (hyperactivity) [6]: this relation was lost after the low-dose PMP administration | tolerability ([7]; 1.5 mg daily at bed-time): tolerating it well | fine and visual motor skills (occupational therapy evaluation) [7, 11]: improvement in their fine and visual motor skills | independent walking [7, 11]: started walking independently | tone and strength (physical therapy evaluation) [7, 11]: significant improvements in their tone and strength | control of clinical seizures ([7]; low dose PMP): not helpful in controlling their clinical seizures | motor, cognition, communication, social and behavior domains ([7]; low doses 0.2 mg->0.3 mg per day at bedtime): significant improvements | tolerability / side effects ([7]; low-dose PMP 0.2 mg, then 0.3 mg every night, started): tolerated the PMP well without any side effects; also recorded: without significant side-effects | sleep quality (parent report) ([7]; once daily low-dose PMP at bedtime): improvement in sleep quality with fewer night time awakenings | excessive AMPA insertion and hyperexcitable phenotype [8]: rescue the excessive AMPA insertion and hyperexcitable phenotype
